Molecular target: T1, BaF3 BRAF-KIAA1549 fusion cells (Homo sapiens, UniProt P15056)
T1 construct: The BRAF-KIAA1549 fusion mutant was subcloned into pMXs-IRES-Blasticidin (RTV-016, Cell Biolabs, San Diego, CA); fused on or other part: Q9HCM3 (UPF0606 protein KIAA1549)
Test: BaF3 BRAF-KIAA1549 fusion cell proliferation assay (CellTiterGlo)
Type: cell-based
Conditions: 96 hours incubation, potency code
Description: Retroviral Production: The BRAF-KIAA1549 fusion mutant was subcloned into pMXs-IRES-Blasticidin (RTV-016, Cell Biolabs, San Diego, CA). Retrovirus was produced by transfection of HEK 293T cells with the retroviral BRAF mutant expression vector pMXs-IRES-Blasticidin (RTV-016, Cell Biolabs), pCMV-Gag-Pol vector and pCMV-VSV-G-Envelope vector. Briefly, HEK 293T cells were plated in Poly-D-lysine coated 6-well plate (2.5×10^5 cells per well) and incubated overnight. The next day, retroviral plasmids (1 μg of BRAF-KIAA fusion mutant, 0.32 μg of pCMV-Gag-Pol and 0.165 μg pCMV-VSV-G) were mixed in 300 μL of Optimem (31985, Life Technologies). The mixture was incubated at room temperature for 5 minutes and then added to Optimem containing transfection reagent Lipofectamine (11668, Invitrogen) and incubated for 20 minutes. The mixture was then added dropwise to HEK 293T cells. The next day the medium was replaced with fresh culture medium and retrovirus was harvested at 24 hours.
Generation of BRAF-KIAA1549 fusion stable cell line: BaF3 cells were plated in V-bottom 96 well plate (COSTAR #3894) in 80 μL of RPMI/10% FBS and 0.01 ng/ml mouse IL-3; supplemented with 8 μg/mL polybrene (4×10^4 cells/well). Cells were transduced with 20 μL of BRAF-KIAA1549 fusion viral supernatant by centrifuging for 30 minutes at 1000 rpm. Cells were placed in a 37° C. incubator overnight. Next day 100 μL of RPMI/10% FBS and 0.01 ng/ml mouse IL-3 was added. After 24 hours, 100 μL of cells were transferred to a 24 well plate containing 900 μL of RPMI/10% FBS and 15 μg/mL Blasticidin. Contents of the 24 well plate were sampled for cell viability via CellTiterGlo (Promega) over a 2-week period.
Assay for cell proliferation: BaF3 BRAF-KIAA1549 fusion cells were resuspended at 1.5×10^5c/mL in RPMI containing 10% Heat Inactivated FBS, 1% L-glutamine and dispensed in duplicate ([…]) into 384 well plates. To determine the effect of compound on cell proliferation, BaF3 BRAF-KIAA1549 fusion cells were incubated for 96 hours in the presence of vehicle control (DMSO) or compound at varying concentrations. Inhibition of cell growth was determined by luminescent quantification (Envision by Perkin Elmer) of intracellular ATP content using CellTiterGlo (Promega), according to the protocol provided by the manufacturer. To determine the IC50 values, the vehicle-treated cells were normalized as viable cells and analyzed using the CDD Vault, Collaborative Drug Discovery, Burlingame, CA (the Levenberg-Marquardt algorithm; Levenberg, K., […]; Marquardt, D., 1963).
Tables A1 and A2 assign each compound a code for potency in the BaF3 BRAF-KIAA1549 fusion cell proliferation assay: A, B, C, or D. According to the code, A represents an IC50 value <20 nM; B represents an IC50 value ≥20 nM and <100 nM; C represents an IC50 value ≥100 nM and <500 nM; and D represents an IC50 value ≥500 nM.

T1 sequence (P15056 whole entry, change not shown, the tested form may be a part): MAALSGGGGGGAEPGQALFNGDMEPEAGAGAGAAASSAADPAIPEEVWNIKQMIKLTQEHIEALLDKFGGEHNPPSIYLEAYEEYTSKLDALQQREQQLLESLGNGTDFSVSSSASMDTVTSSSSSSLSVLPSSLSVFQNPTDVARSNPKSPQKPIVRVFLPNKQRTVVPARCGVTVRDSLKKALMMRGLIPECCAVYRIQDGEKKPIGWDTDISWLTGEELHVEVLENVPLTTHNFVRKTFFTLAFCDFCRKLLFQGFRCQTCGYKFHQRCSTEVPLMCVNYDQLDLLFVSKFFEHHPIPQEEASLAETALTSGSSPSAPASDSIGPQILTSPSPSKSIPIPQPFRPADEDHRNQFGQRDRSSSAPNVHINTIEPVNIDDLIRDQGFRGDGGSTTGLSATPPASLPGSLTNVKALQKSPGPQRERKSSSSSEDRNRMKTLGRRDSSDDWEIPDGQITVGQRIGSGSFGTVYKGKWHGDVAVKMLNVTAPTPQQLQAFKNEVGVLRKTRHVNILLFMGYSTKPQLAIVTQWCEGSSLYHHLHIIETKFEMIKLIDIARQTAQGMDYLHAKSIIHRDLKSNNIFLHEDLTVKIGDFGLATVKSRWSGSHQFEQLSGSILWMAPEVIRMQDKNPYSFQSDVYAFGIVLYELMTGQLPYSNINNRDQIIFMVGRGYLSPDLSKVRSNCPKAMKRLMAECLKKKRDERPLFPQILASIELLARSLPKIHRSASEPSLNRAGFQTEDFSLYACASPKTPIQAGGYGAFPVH

Compound | GI50
Cc1ccc(NC(=O)c2ccc(Cl)c(N(C)C)c2)cc1Nc1ncccc1-c1ncnc2[nH]cnc12 [Compound I-81, N-(3-((3-(9H-purin-6-yl)pyridin-2-yl)amino)-4-methylphenyl)-4-chloro-3-(dimethylamino)benzamide] | < 20 nM
Cc1ccc(NC(=O)c2cc(C3CC3)c(Cl)cn2)cc1Nc1ncccc1-c1ncnc2[nH]cnc12 [Compound I-56, N-(3-((3-(9H-purin-6-yl)pyridin-2-yl)amino)-4-methylphenyl)-5-chloro-4-cyclopropylpicolinamide] | ≥ 500 nM
Cc1ccc(NC(=O)c2ccc3c(c2)OCO3)cc1Nc1ncccc1-c1ncnc2[nH]cnc12 [Compound I-74, N-(3-((3-(9H-purin-6-yl)pyridin-2-yl)amino)-4-methylphenyl)benzo[d][1,3]dioxole-5-carboxamide] | 20 to 100 nM
Cc1ccc(NC(=O)c2ccnc(C3COC3)c2)cc1Nc1ncccc1-c1ncnc2[nH]cnc12 [Compound I-32, N-(3-((3-(9H-purin-6-yl)pyridin-2-yl)amino)-4-methylphenyl)-2-(oxetan-3-yl)isonicotinamide] | < 20 nM
Cc1ccc(C(=O)Nc2cccc(C(F)(F)F)c2)cc1Nc1ncccc1-c1ncnc2[nH]cnc12 [II-3, 3-((3-(9H-Purin-6-yl)pyridin-2-yl)amino)-4-methyl-N-(3-(trifluoromethyl)phenyl)benzamide] | < 20 nM
Cc1ccc(NC(=O)c2ccc(Cl)c(C(C)(C)C#N)c2)cc1Nc1ncccc1-c1ncnc2[nH]cnc12 [Compound I-37, N-(3-((3-(9H-purin-6-yl)pyridin-2-yl)amino)-4-methylphenyl)-4-chloro-3-(2-cyanopropan-2-yl)benzamide] | 20 to 100 nM
Cc1ccc(NC(=O)c2cccc(C(C)(C)C#N)c2)nc1Nc1ncccc1-c1ncnc2[nH]cnc12 [Compound I-57, N-(6-((3-(9H-purin-6-yl)pyridin-2-yl)amino)-5-methylpyridin-2-yl)-3-(2-cyanopropan-2-yl)benzamide] | ≥ 500 nM
Cc1ccc(NC(=O)CN2CCCC(C(F)(F)F)C2)cc1Nc1ncccc1-c1ncnc2[nH]cnc12 (stereo not drawn) [Compound I-77, N-(3-((3-(9H-purin-6-yl)pyridin-2-yl)amino)-4-methylphenyl)-2-(3-(trifluoromethyl)piperidin-1-yl)acetamide] | < 20 nM
Cc1ccc(NC(=O)c2ccc(C#N)cc2)cc1Nc1ncccc1-c1ncnc2[nH]cnc12 [Compound I-26, N-(3-((3-(9H-purin-6-yl)pyridin-2-yl)amino)-4-methylphenyl)-4-cyanobenzamide] | 100 to 500 nM
Cc1ncc(NC(=O)c2ccnc(C(F)(F)F)c2)cc1Nc1ncccc1-c1ncnc2[nH]cnc12 [Compound I-17, N-(5-(3-(9H-purin-6-yl)pyridin-2-ylamino)-6-methylpyridin-3-yl)-2-(trifluoromethyl)isonicotinamide] | 20 to 100 nM
O=C(Nc1ccc(F)c(Nc2ncccc2-c2ncnc3[nH]cnc23)c1)c1cc(C(F)(F)F)ccn1 [Compound I-20] | 20 to 100 nM
Cc1ccc(NC(=O)c2cc(C3(C#N)CCC3)ccn2)cc1Nc1ncccc1-c1ncnc2[nH]cnc12 [Compound I-64, N-(3-((3-(9H-purin-6-yl)pyridin-2-yl)amino)-4-methylphenyl)-4-(1-cyanocyclobutyl)picolinamide] | < 20 nM
Cc1ccc(NC(=O)CC2CCCCCO2)cc1Nc1ncccc1-c1ncnc2[nH]cnc12 (stereo not drawn) [Compound I-82, N-(3-((3-(9H-purin-6-yl)pyridin-2-yl)amino)-4-methylphenyl)-2-(oxepan-2-yl)acetamide] | < 20 nM
Cc1c(F)cc(C(=O)Nc2cccc(C3(C#N)CC3)c2)cc1Nc1ncccc1-c1ncnc2[nH]cnc12 [Compound I-60, 3-((3-(9H-purin-6-yl)pyridin-2-yl)amino)-N-(3-(1-cyanocyclopropyl)phenyl)-5-fluoro-4-methylbenzamide] | < 20 nM
Cc1cc(NC(=O)c2cc(C(F)(F)F)ccn2)cc(Nc2ncccc2-c2ncnc3[nH]cnc23)c1C [Compound I-63, N-(3-((3-(9H-purin-6-yl)pyridin-2-yl)amino)-4,5-dimethylphenyl)-4-(trifluoromethyl)picolinamide] | 100 to 500 nM

Other lines, results leading:

GI50 | Compound
< 20 nM | Cc1nc2c(-c3cccnc3Nc3cc(NC(=O)c4cc(C(F)(F)F)c(F)cn4)ccc3C)ncnc2[nH]1 [IA-128, 5-fluoro-N-(4-methyl-3-((3-(8-methyl-9H-purin-6-yl)pyridin-2-yl)amino)phenyl)-4-(trifluoromethyl)picolinamide]
≥ 500 nM | Cc1ccc(NC(=O)CN2CCCOCC2)cc1Nc1ncccc1-c1ncnc2[nH]cnc12 [IA-133, N-(3-((3-(9H-purin-6-yl)pyridin-2-yl)amino)-4-methylphenyl)-2-(1,4-oxazepan-4-yl)acetamide]
20 to 100 nM | COc1nc2c(-c3cccnc3Nc3cc(NC(=O)c4cc(C(F)(F)F)ccn4)ccc3C)ncnc2[nH]1 [IA-123, N-(3-(3-(8-methoxy-9H-purin-6-yl)pyridin-2-ylamino)-4-methylphenyl)-4-(trifluoromethyl)picolinamide]
< 20 nM | Cc1ccc(NC(=O)C[C@@H]2CCC[C@H](C(F)(F)F)C2)cc1Nc1ncccc1-c1ncnc2[nH]cnc12 (single isomer, unassigned) [IA-138]
< 20 nM | Cc1ccc(NC(=O)C[C@@H]2CCC[C@@H](C(F)(F)F)C2)cc1Nc1ncccc1-c1ncnc2[nH]cnc12 (single isomer, unassigned) [IA-140]
< 20 nM | Cc1nc2c(-c3cccnc3Nc3cc(NC(=O)c4cc(C(O)C(F)(F)F)ccn4)ccc3C)ncnc2[nH]1 (stereo not drawn) [IA-130, N-(4-methyl-3-((3-(8-methyl-9H-purin-6-yl)pyridin-2-yl)amino)phenyl)-4-(2,2,2-trifluoro-1-hydroxyethyl)picolinamide]
20 to 100 nM | Cc1ccc(NC(=O)c2cc(C(F)(F)F)c(OC3CNC3)cn2)cc1Nc1ncccc1-c1ncnc2[nH]cnc12 [IA-96, N-(3-(3-(9H-purin-6-yl)pyridin-2-ylamino)-4-methylphenyl)-5-(azetidin-3-yloxy)-4-(trifluoromethyl)picolinamide]
< 20 nM | Cc1nc2c(-c3cccnc3Nc3cc(NC(=O)c4cc(C(F)(F)F)ccn4)ccc3C)ncnc2[nH]1 [IA-126, N-(4-methyl-3-((3-(8-methyl-9H-purin-6-yl)pyridin-2-yl)amino)phenyl)-4-(trifluoromethyl)picolinamide]
≥ 500 nM | Cc1ccc(NC(=O)CN2CCCNCC2)cc1Nc1ncccc1-c1ncnc2[nH]cnc12 [IA-134, N-(3-((3-(9H-purin-6-yl)pyridin-2-yl)amino)-4-methylphenyl)-2-(1,4-diazepan-1-yl)acetamide]
100 to 500 nM | Cc1ccc(NC(=O)C[C@H]2CCN[C@@H](C(F)(F)F)C2)cc1Nc1ncccc1-c1ncnc2[nH]cnc12 (single isomer, unassigned) [IA-141]
< 20 nM | Cc1ccc(NC(=O)CN2CCC[C@@H](C(F)(F)F)C2)cc1Nc1ncccc1-c1ncnc2[nH]cnc12 [IA-107, (R)—N-(3-((3-(9H-purin-6-yl)pyridin-2-yl)amino)-4-methylphenyl)-2-(3-(trifluoromethyl)piperidin-1-yl)acetamide]
20 to 100 nM | Cc1ccc(NC(=O)C[C@H]2CCO[C@@H](C(F)(F)F)C2)cc1Nc1ncccc1-c1ncnc2[nH]cnc12 (single isomer, unassigned) [IA-146]

Reference: patent US20240317752A1, “6-SUBSTITUTED-9H-PURINE DERIVATIVES AND RELATED USES” (Black Diamond Therapeutics, Inc., priority 2021, published 2024)
